ChEMBL document CHEMBL3621125, “Click-tailed coumarins with potent and selective inhibitory action against the tumor-associated carbonic anhydrases IX and XII” (Bioorg Med Chem, 2015)

Experiments:
[1] = target: Carbonic anhydrase 9 (Homo sapiens, UniProt Q16790); experiment: Inhibition of human carbonic anhydrase 9 incubated for 6 hrs by stopped flow carbon-di-oxide hydrase assay
[2] = target: Carbonic anhydrase 2 (Homo sapiens, UniProt P00918); experiment: Inhibition of human carbonic anhydrase 2 incubated for 6 hrs by stopped flow carbon-di-oxide hydrase assay
[3] = target: Carbonic anhydrase 1 (Homo sapiens, UniProt P00915); experiment: Inhibition of human carbonic anhydrase 1 incubated for 6 hrs by stopped flow carbon-di-oxide hydrase assay
Carbonic anhydrase 1, sequence (P00915 whole entry): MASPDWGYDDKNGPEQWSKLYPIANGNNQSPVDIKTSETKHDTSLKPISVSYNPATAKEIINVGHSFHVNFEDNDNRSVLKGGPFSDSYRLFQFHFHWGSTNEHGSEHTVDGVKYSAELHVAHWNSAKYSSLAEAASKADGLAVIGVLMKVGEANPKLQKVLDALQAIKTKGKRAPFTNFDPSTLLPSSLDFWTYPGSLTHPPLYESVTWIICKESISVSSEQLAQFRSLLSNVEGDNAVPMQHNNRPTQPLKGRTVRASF

| Structure (SMILES) | Ki [1] [nM] | Ki [2] [nM] | Ki [3] [nM] |
| --- | --- | --- | --- |
| COc1cccc(-n2cc(COc3ccc4ccc(=O)oc4c3)nn2)c1 | 23.6 | > 10000 | – |
| O=c1ccc2ccc(OCc3cn(-c4ccc(F)cc4)nn3)cc2o1 | 24 | > 10000 | – |
| O=c1ccc2ccc(OCc3cn(-c4ccc(C(F)(F)F)cc4)nn3)cc2o1 | – | > 10000 | – |
| O=c1ccc2ccc(OCc3cn(-c4ccc(O)cc4)nn3)cc2o1 | 26.9 | > 10000 | – |
| NS(=O)(=O)c1ccc(-n2cc(COc3ccc4ccc(=O)oc4c3)nn2)cc1 | 14.3 | > 10000 | – |
| Cc1cc(=O)oc2cc(-n3cc(COc4ccc5ccc(=O)oc5c4)nn3)ccc12 | 22.8 | > 10000 | > 10000 |
| Cc1cc(=O)oc2cc(-n3cc(COc4ccccc4)nn3)ccc12 | 33.1 | > 10000 | – |
| Cc1cc(=O)oc2cc(-n3cc(CSc4ccccc4)nn3)ccc12 | – | > 10000 | – |

Now from value to molecule:

| Ki [1] [nM] | Ki [2] [nM] | Ki [3] [nM] | Structure (SMILES) |
| --- | --- | --- | --- |
| 24.5 | > 10000 | > 10000 | O=c1ccc2ccc(OCc3cn(-c4ccccc4)nn3)cc2o1 |
| 24.9 | > 10000 | – | O=c1ccc2ccc(OCc3cn(-c4cccc(F)c4)nn3)cc2o1 |
| 31.2 | > 10000 | > 10000 | O=c1ccc2ccc(OCc3cn(-c4cccc(Cl)c4)nn3)cc2o1 |
| 27.5 | > 10000 | > 10000 | O=c1ccc2ccc(OCc3cn(-c4cccc(Br)c4)nn3)cc2o1 |
| 28.8 | 99.6 | – | O=C(O)c1ccc(-n2cc(COc3ccc4ccc(=O)oc4c3)nn2)cc1 |
| 34.4 | 9740 | – | Cc1cc(=O)oc2cc(-n3cc(CNc4ccccc4)nn3)ccc12 |
